Reference: US7608585B2, “Compositions for inhibition of necrosis induced by a neurotrophin” (Neurotech Pharmaceuticals Co., Ltd., priority 2004, dated 2009)

How the values were obtained:
Assay type in all cases: cell-based, Rat
[1] = tested on: p47-phox and p67-phox in cortical cell cultures; assay: Immunocytochemistry of p47-phox and p67-phox; details: 32 hr following exposure
Procedure: Immunocytochemistry was performed to identify which types of cells express NADPH oxidase in cortical cell cultures containing neurons and glia.
Cortical cell cultures (DIV 12-14) grown on glass bottom dishes were fixed in 4% paraformaldehyde for 30 min, incubated in 10% horse serum for 1 hr, and double-immunolabeled with a mouse monoclonal antibody against NeuN (1:400 dilution, Chemicon, Temecula, Calif.) and a goat polyclonal antibody against p47-phox or p67-phox (1:200 dilution, Santa Cruz, Santa Cruz, Calif.) for 2-4 hr. Cultures were then reacted with fluorescein isothiocyanate-conjugated anti-goat IgG (1:200 dilution, Organon Teknika Corp., NC) and Texas red-conjugated anti-mouse IgG (1:200, Vector Laboratory, Burlingame, Calif.) for 1-2 hr. The fluorescence images were collected and analyzed with a fluorescence microscopy (Zeiss, Germany) equipped with the Real-14™ precision digital camera (Apogee Instrument, Tucson, Ariz.) and ImagePro Plus Plug-in (Silver Spring, Md.).

ROS in cortical neurons = assay: ROS imaging by oxidized DCDHF-DA (DCF) and hydroethidine fluorescence
Procedure: Cortical cell cultures (DIV 12-15) grown on glass bottom dishes were loaded with 10 μM dichlorodihydro fluorescein diacetate (DCDHF-DA) or 5 μM hydroethidium (Molecular Probes, Eugene, Oreg.) plus 2% Pluronic F-127 in HEPES-buffered control salt solution (HCSS) buffer containing (in mM): 120 NaCl, 5 KCl, 1.6 MgCl2, 2.3 CaCl2, 15 glucose, 20 HEPES, and 10 NaOH. Cultures were incubated for 20 min at 37° C., and washed three times with HCSS buffer. […] The fluorescence images were analyzed using a QuantiCell 700 system (Applied imaging, UK).
Superoxide production through activation of NADPH oxidase was analyzed by measuring the oxidation of HEt and DCDHF to ethidium and DCF, respectively, in cortical neurons after exposure to a sham operation, 100 ng/ml BDNF, or 100 ng/ml BDNF plus 3 nM DPI for 32 hr (FIG. 15).

[2] = tested on: NADPH oxidase activation (p47-phox, p67-phox); assay: Subcellular fractionation and western blot, translocation of p47-phox and p67-phox; details: exposed for 16-32 hr
Procedure: Activation of NADPH oxidase involves translocation of the cytosolic p47-phox and p67-phox subunits into the plasma membrane (Clark et al., 1989, Trans. Assoc. Am. Physicians., 102, 224-230). We examined if treatment with BDNF would activate NADPH oxidase through isolating the cytosol and membrane fraction.
Cortical cell cultures were washed with ice-cold PBS and resuspended in an isotonic buffer containing 10 mM HEPES, pH 8.0, 250 mM sucrose, 1 mM EDTA, 1 mM EGTA, 1 mM dithiothreitol (DTT), 2 mM PMSF, 100 μg/ml leupeptin, and 10 μg/ml pepstatin A. For isolating the cytosol and membrane fraction, the lysate was homogenized with a homogenizer (KONTE, Vieland, N.J.), centrifuged at 9,000 g for 10 min, and the supernatant was then centrifuged at 100,000 g for 1 hr.
The membrane fraction was obtained by resuspending the pellet with 50 μl lysis buffer and the cytosolic fraction was obtained from the supernatant. As shown in <EXAMPLE 7-4>, western blot experiments were performed to analyze protein levels of NADPH oxidase subunits using available antibodies for gp91-phox, p47-phox, and p67-phox.

[3] = tested on: Neuron-rich cortical cell cultures; assay: Serum deprivation-induced neuronal apoptosis, counting viable neurons
Procedure: For neuron-glia mixed cultures, 10 μM cytosine arabinoside (Ara C) was included to stop the overgrowth of non-neuronal cells to cultures at DIV 5-7 when glial cells were confluent underneath neurons. After 2 days, cultures were then fed with plating medium lacking fetal serum twice a week. Cultures were maintained at 37° C. in a humidified 5% CO2 incubator. For neuron-rich cultures (>95%), 2.5 μM Ara C was included to cultures at 2-3 days in vitro (DIV 2-3) as previously described (Gwag et al., 1997).
Mixed cortical cell cultures (DIV 12-14) were rinsed in serum free MS (MEM supplemented with 26.5 mM sodium bicarbonate and 21 mM glucose) and then exposed to various concentrations of NGF, BDNF or NT-3 in serum free MS. Neuronal cell death was analyzed by measuring the level of lactate dehydrogenase (LDH) released into the bathing medium. The percent neuronal death was normalized to the mean LDH value released after a sham control (defined as 0%) or continuous exposure to 500 μM NMDA for 24 hr (defined as 100%) The latter produces complete neuronal death within 24 hr. For experiments for serum deprivation, neuron-rich cortical cell cultures (DIV 7) were placed into serum free MS containing 1 μM MK-801 as described (Gwag et al., 1995). Neuronal death was analyzed 24 and 48 hr later by counting viable neurons excluding Trypan Blue satained.
Neuron-rich cortical cell cultures (DIV 7) were deprived of serum, alone (serum deprivation) or in the presence of 100 ng/ml BDNF, 100 ng/ml BDNF plus 3 nM DPI, 3 nM DPI, 100 ng/ml BDNF plus 100 μM trolox, or 100 μM trolox. Neuronal death was assessed 24 hr and 48 hr later by counting viable neurons.

[4] = tested on: NADPH oxidase subunits gp91-phox, p47-phox, p67-phox; assay: Western blot of NADPH oxidase subunits; details: over 16-32 hr exposure
Procedure: Western blot experiments were performed to analyze protein levels of NADPH oxidase subunits using available antibodies for gp91-phox, p47-phox, and p67-phox.
Cortical cell cultures were lysed in a lysis buffer containing 50 mM Tris-HCl (pH 7.5), 1% Nonidet P-40, 150 mM NaCl, 0.5% deoxycholic acid, 0.1% sodium dodecyl sulfate (SDS), 1 mM PMSF (phenylmethylsulfonyl fluoride), 10 μg/ml pepstain A, and 100 μg/ml leupeptin. Cell lysates were centrifuged at 12,000 g for 10 min. approximately 25 μg of protein was subjected to electrophoresis on 12% SDS-polyacrylamide gel and transferred to a nitrocellulose membrane. The blot was incubated in 2.5% bovine serum albumin for 1 hr, incubated with goat polyclonal primary antibodies, anti-gp91-phox, anti-p67-phox, or anti-p47-phox antibodies (1:1000, Santa Cruz, Santa Cruz, Calif.), and then reacted with a biotinylated anti-goat secondary antibody. Immunoreactivity was detected with Vectastain ABC kit (Vector Laboratory, Burlingame, Calif., USA) and luminol for enhanced chemiluminescence Intron, Korea). The signal was analyzed by quantitative densitometry using LAS-1000 systems (Fuji Photofilm Co., Japan).

[5] = tested on: NADPH oxidase (p22-phox, gp91-phox, p47-phox) mRNA; assay: RT-PCR of NADPH oxidase subunit mRNA
Procedure: RT-PCR experiments were performed to confirm the BDNF-sensitive genes derived from cDNA expression microarray, cytochrome b558 as it constitutes p22-phox and gp91-phox subunits of NADPH oxidase, a pro-oxidant enzyme generating superoxide from oxygen.
Total RNA (1 μg each) was incubated in a reaction mixture containing dNTP (2.5 mM each), RNasin (0.5 Unit), oligo dT primer (100 ng), and MMLV reverse transcriptase (200 Unit) at 37° C. for 1 hr. The samples were incubated at 92° C. for 10 min and transferred to 4° C. The reverse transcribed cDNA was subjected to PCR amplification. PCR was performed according to manufacturer's procedure (Takara Shuzo Co., Japan) sequentially (denaturation-annealing-extension) at following conditions: for p47-phox, 94° C. for 30 S, 55° C. for 30 S, and 72° C. for 60 S (28 cycles); for p22-phox (homologous to cytochrome b558 in microarray) and gp91-phox, 94° C. for 45 S, 60° C. for 60 S, and 72° C. for 120 S (33 cycles); for GAPDH, 94° C. for 35 S, 55° C. for 45 S, and 72° C. for 90 S (25 cycles). Primer sequences used were as follows (5′-3′): for p22-phox, […] (forward) and […] (reverse); for p47-phox, CAGCCA […] (forward) and […] (reverse); for gp91-phox, […] TG (forward) and […] (reverse); for GAPDH, […] (forward) and […] (reverse). PCR products were run on a 1.2% agarose gel and visualized with ethidium bromide. The relative amount of mRNA was measured using LAS-1000 systems (Fuji Photofilm Co., Japan), normalized to levels of GAPDH mRNA. DNA sequencing was performed with Big Dye Terminator Chemistry from Perkin-Elmer Applied Biosystems on ABI PRISM™ 377 DNA sequencer (Foster City, Calif.)

## BDNF: brain-derived neurotrophic factor, a neurotrophin
[1]
  Signals of p47-phox and p67-phox (immunoreactivity): increased exclusively in neurons
ROS in cortical neurons; 100 ng/ml BDNF for 32 hr
  Oxidation of HEt and DCDHF: increased oxidation
ROS in cortical neurons; exposed for 16 hr
  Fluorescent intensity of DCF in cortical neurons: increased
ROS in cortical neurons; over 24-32 hr
  Intraneuronal levels of ROS ([ROS]i): further increased
[2]
  Levels of p47-phox and p67-phox in cytosolic and membrane fraction: reduced in the cytosolic fraction and increased in the membrane fraction
[3]; 100 ng/ml, within 48 hrs
  Protective effects of BDNF following serum deprivation: disappeared
[3]; serum deprivation, 100 ng/ml BDNF
  Neuronal apoptosis: prevented neuronal apoptosis
[4]
  Protein levels of NADPH oxidase subunits gp91-phox, p47-phox, and p67-phox: increased
[5]; 4 hr later, lasted over the next 12 hr
  mRNA levels of p22-phox and gp91-phox: maximally increased
[5]; from 30 min following administration
  mRNA levels of p47-phox subunit: increased gradually
[5]; within 2 hr after treatment
  mRNA levels of p22-phox and gp91-phox: increase
